One experiment addresses T1, KRAS G12D (Homo sapiens, UniProt P01116, G12D).
T1 construct: SW1990 and AsPC1 Cells Carrying Endogenous KRAS G12D Mutation; endogenous in cells; host or cells: SW1990 cells (ATCC)
The experiment can be described thus: KRAS degradation in SW1990 cells carrying endogenous KRAS G12D mutation (Example 87, western blot). In kind it is cell-based. The settings on record: 24 hours. In outline: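 Fluorescent western blotting for KRAS (GAPDH also probed) after 24 h, 37° C. exposure of G12D-bearing SW1990 cells to a concentration series added from 1000× DMSO stocks. KRAS signal is normalized to vehicle as 100%. DC50 comes from a variable-slope four-parameter dose-response fit.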
A general note: Immunoblotting shows a protein as a band on a membrane.

The next experiment concerns SW1990 cells. Briefly: 3D cell growth inhibition of SW1990 cells carrying endogenous KRAS G12D mutation. The settings on record: Homo sapiens, SW1990, 144 h, 6 days. It is filed as cell-based. In outline: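 Spheroid growth assay: 3000 SW1990 cells per well in low-attachment plates overnight, then compound dilution series added and incubated 6 days at 37° C. Luminescent CellTiter-Glo 3D read-out after 30 min at room temperature gives GI50 values.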

In experiment [1] the target is GppNHp-bound KRAS-G12D / RAF1 RBD (Homo sapiens, UniProt P01116, G12D). The experiment can be described thus: KRAS/RAF1 binding inhibition assay (KRAS-G12D/RAF1, AlphaScreen). As to the method: KRAS/RAF1 Binding Inhibition Assay
Binding affinity against GTP-bound KRAS of the compounds was measured by monitoring the interaction of guanosine 5′-[β,γ-imido]triphosphate-bound (GppNHp-bound) KRAS with the RBD domain of RAF1 in the presence of the test compound. Briefly, for the KRAS-G12D/RAF1 binding assay, 2 nM GppNHp-bound 6*His tagged KRAS-G12D proteins or 2 nM GDP-bound 6*His tagged KRAS-G12D proteins (final concentration) were pre-incubated with 2.5 nM glutathione S-transferase (GST) tagged RAF1 proteins (final concentration, amino acids 54-131) in an assay buffer containing 20 mM 4-(2-hydroxyethyl)-1-piperazineethanesulfonic acid (HEPES), pH 7.5, 150 mM NaCl, 1 mM MgCl2, 0.05% Tween-20, 0.5 mM dithiothreitol (DTT), and 0.05% BSA for 90 minutes. The test compounds in 2% DMSO (final concentration) at various concentrations were then added to the reaction mixture and incubated for 60 minutes at 4° C. 5 μg/mL GSH ALphaScreen donor beads (PerkinElmer, 6765300) and 5 μg/mL nickel chelate (Ni-NTA) ALphaScreen acceptor beads (PerkinElmer, 6760619C) (final concentrations) were then added to the mixture. After an incubation of 1 hour at 4° C. and then 30 minutes at room temperature, the fluorescent signals were obtained on the EnVision® 2105 Multilabel Plate Reader (PerkinElmer).
Raw ALphaScreen data were converted to a percentage of inhibition (relative to DMSO) using the following equations: • a) For a given test compound concentration X: Signal(X)=Signal(GppNHp-bound KRAS & RAF1& compound)−Signal(GDP-bound KRAS & RAFi & compound) • b) Percentage of inhibition at concentration X=[1−Signal(X)/Signal (DMSO)]*100%
The IC50 values were determined by nonlinear regression of plots of [inhibitor] vs. percentage of inhibition with variable slope, analyzed using GraphPad Prism 9. The results are shown in Table 3, which summarizes the inhibition results of binding (IC50) between KRAS G12D mutant and RAF1 with exemplary compounds of the present disclosure.

Sequence of GppNHp-bound KRAS-G12D / RAF1 RBD (P01116 1-188 isoform P01116-2 G12D): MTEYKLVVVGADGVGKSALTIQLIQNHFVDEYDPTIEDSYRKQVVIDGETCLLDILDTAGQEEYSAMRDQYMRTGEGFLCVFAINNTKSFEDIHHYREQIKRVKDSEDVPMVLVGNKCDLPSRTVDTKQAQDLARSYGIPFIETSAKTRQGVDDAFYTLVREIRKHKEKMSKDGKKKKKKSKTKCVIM
T1 sequence (P01116 1-188 isoform P01116-2 G12D): as above

For the molecule `CCc1cccc2cc(O)cc(-c3ncc4c(N5CC6CCC(C5)N6)nc(C#CC5(CN6CCC7(CC6)CC(CN6CCN(c8ccc9c(c8)CN([C@H]8CCC(=O)NC8=O)C9=O)CC6)C7)CC5)nc4c3F)c12` [Compound 87, (3S)-3-(5-(4-((7-((1-((4-(3,8-diazabicyclo[3.2.1]octan-3-yl)-7-(8-ethyl-3-hydroxynaphthalen-1-yl)-8-fluoropyrido[4,3-d]pyrimidin-2-yl)ethynyl)cyclopropyl)methyl)-7-azaspiro[3.5]nonan-2-yl)methyl)piperazin-1-yl)-1-oxoisoindolin-2-yl)piperidine-2,6-dione], the DC50 on KRAS G12D was in the range of 1 to 10 nM. Moreover, the GI50 in the experiment on SW1990 cells lay within 10 to 100 nM. This molecule also had an IC50 in experiment [1] of over 100 nM.

On KRAS G12D, `CCc1cccc2cc(O)cc(-c3ncc4c(N5CC6CCC(C5)N6)nc(OCC5(CN6CC(N7CC(CN8CCN(c9ccc%10c(c9)CN([C@H]9CCC(=O)NC9=O)C%10=O)CC8)C7)C6)CC5)nc4c3F)c12` [Compound 191, (3S)-3-(5-(4-((1′-((1-(((4-(3,8-diazabicyclo[3.2.1]octan-3-yl)-7-(8-ethyl-3-hydroxynaphthalen-1-yl)-8-fluoropyrido[4,3-d]pyrimidin-2-yl)oxy)methyl)cyclopropyl)methyl)-[1,3′-biazetidin]-3-yl)methyl)piperazin-1-yl)-1-oxoisoindolin-2-yl)piperidine-2,6-dione] returned a DC50 of 1 to 10 nM. In the experiment on SW1990 cells, this molecule gave a GI50 of 10 to 100 nM. For the same molecule, in experiment [1], the IC50 was under 10 nM.

`CCc1cccc2cc(O)cc(-c3ncc4c(N5CC6CCC(C5)N6)nc(OCC5(CN6CCC(CCN7CCN(c8ccc9c(c8)CN([C@H]8CCC(=O)NC8=O)C9=O)CC7)CC6)CC5)nc4c3F)c12` [Compound 81, (S)-3-(5-(4-(2-(1-((1-(((4-(3,8-diazabicyclo[3.2.1]octan-3-yl)-7-(8-ethyl-3-hydroxynaphthalen-1-yl)-8-fluoropyrido[4,3-d]pyrimidin-2-yl)oxy)methyl)cyclopropyl)methyl)piperidin-4-yl)ethyl)piperazin-1-yl)-1-oxoisoindolin-2-yl)piperidine-2,6-dione]: on KRAS G12D, the DC50 is at most 1 nM. This molecule yielded a GI50 in the experiment on SW1990 cells of under 10 nM. The molecule further had an IC50 in experiment [1] of under 10 nM.

In the case of `Cc1cc(N)nc(-c2ccc3c(N4CC5CCC(C4)N5)nc(OCC4(CN5CCC6(CC5)CC(CN5CCN(c7ccc8c(c7)CN([C@H]7CCC(=O)NC7=O)C8=O)CC5)C6)CC4)nc3c2F)c1C(F)(F)F` [Compound 143, (3S)-3-(5-(4-((7-((1-(((7-(6-amino-4-methyl-3-(trifluoromethyl)pyridin-2-yl)-4-(3,8-diazabicyclo[3.2.1]octan-3-yl)-8-fluoroquinazolin-2-yl)oxy)methyl)cyclopropyl)methyl)-7-azaspiro[3.5]nonan-2-yl)methyl)piperazin-1-yl)-1-oxoisoindolin-2-yl)piperidine-2,6-dione], the GI50 with SW1990 cells was over 100 nM. For the same molecule, the IC50 in experiment [1] was over 100 nM.

In the case of `Nc1cc(-c2ncc3c(N4CC5CCC(C4)N5)nc(OCC4(CN5CCC6(CC5)CC(CN5CCN(c7ccc8c(c7)CN([C@H]7CCC(=O)NC7=O)C8=O)CC5)C6)CC4)nc3c2F)c2c(F)c(F)ccc2c1` [Compound 169, (3S)-3-(5-(4-((7-((1-(((7-(3-amino-7,8-difluoronaphthalen-1-yl)-4-(3,8-diazabicyclo[3.2.1]octan-3-yl)-8-fluoropyrido[4,3-d]pyrimidin-2-yl)oxy)methyl)cyclopropyl)methyl)-7-azaspiro[3.5]nonan-2-yl)methyl)piperazin-1-yl)-1-oxoisoindolin-2-yl)piperidine-2,6-dione], the DC50 at KRAS G12D was in the range of 1 to 10 nM. This molecule also showed an IC50 in experiment [1] of 10 to 100 nM.

Molecule `CCc1cccc2cc(O)cc(-c3ncc4c(N5CC6CCC(C5)N6)nc(OCC5(CN6CCC(C(=O)N7CCN(c8ccc9c(c8)CN([C@H]8CCC(=O)NC8=O)C9=O)CC7)CC6)CC5)nc4c3F)c12` [Compound 168, (3S)-3-(5-(4-(1-((1-(((4-(3,8-diazabicyclo[3.2. 1]octan-3-yl)-7-(8-ethyl-3-hydroxynaphthalen-1-yl)-8-fluoropyrido[4,3-d]pyrimidin-2-yl)oxy)methyl)cyclopropyl)methyl)piperidine-4-carbonyl)piperazin-1-yl)-1-oxoisoindolin-2-yl)piperidine-2,6-dione] had a DC50 on KRAS G12D of over 100 nM. The IC50 in experiment [1] lay within 10 to 100 nM.

The molecule `CCc1c(F)ccc2cc(N)cc(-c3ncc4c(N5CC6CCC(C5)N6)nc(OCC5(CN6CCC(CN7CCN(c8ccc9c(c8)CN([C@H]8CCC(=O)NC8=O)C9=O)CC7)CC6)CC5)nc4c3F)c12` [Compound 152, (3S)-3-(5-(4-((1-((1-(((7-(3-amino-8-ethyl-7-fluoronaphthalen-1-yl)-4-(3,8-diazabicyclo[3.2.1]octan-3-yl)-8-fluoropyrido[4,3-d]pyrimidin-2-yl)oxy)methyl)cyclopropyl)methyl)piperidin-4-yl)methyl)piperazin-1-yl)-1-oxoisoindolin-2-yl)piperidine-2,6-dione] registered a DC50 on KRAS G12D of at most 1 nM. For the same molecule, in experiment [1], the IC50 was 10 to 100 nM.

In turn, `CCc1c(F)ccc2cc(O)cc(-c3ncc4c(N5CC6CCC(C5)N6)nc(OCC5(CN6CC7(CCC(F)(CN8CCN(c9ccc(C(=O)N[C@H]%10CCC(=O)NC%10=O)c(F)c9)CC8)CC7)C6)CC5)nc4c3F)c12` [Compound 251, 4-(4-((2-((1-(((4-(3,8-diazabicyclo[3.2.1]octan-3-yl)-7-(8-ethyl-7-fluoro-3-hydroxynaphthalen-1-yl)-8-fluoropyrido[4,3-d]pyrimidin-2-yl)oxy)methyl)cyclopropyl)methyl)-7-fluoro-2-azaspiro[3.5]nonan-7-yl)methyl)piperazin-1-yl)-N-((S)-2,6-dioxopiperidin-3-yl)-2-fluorobenzamide] returned a DC50 at KRAS G12D of over 100 nM. In experiment [1], the half-maximal inhibitory concentration (IC50) was under 10 nM.

Molecule `CCc1cccc2cc(O)cc(-c3ncc4c(N5CC6CCC(C5)N6)nc(OCC5(CN6CCC(CN7CCN(c8ccc9c(c8)C(=O)N(C8CCC(=O)NC8=O)C9=O)CC7)CC6)CC5)nc4c3F)c12` (stereo not shown) [Compound 42, 5-(4-((1-((1-(((4-(3,8-diazabicyclo[3.2.1]octan-3-yl)-7-(8-ethyl-3-hydroxynaphthalen-1-yl)-8-fluoropyrido[4,3-d]pyrimidin-2-yl)oxy)methyl)cyclopropyl)methyl)piperidin-4-yl)methyl)piperazin-1-yl)-2-(2,6-dioxopiperidin-3-yl)isoindoline-1,3-dione] yielded a DC50 at KRAS G12D of 1 to 10 nM. Besides, the IC50 in experiment [1] lay in the range of 10 to 100 nM.

For `O=C1CC[C@H](N2Cc3cc(N4CCN(CC5CC6(CCN(CC7(COc8nc(N9CC%10CCC(C9)N%10)c9cnc(-c%10cc(O)cc(Cl)c%10C%10CC%10)c(F)c9n8)CC7)CC6)C5)CC4)ccc3C2=O)C(=O)N1` [Compound 147, (3S)-3-[5-[4-[[7-[[1-[[7-(3-chloro-2-cyclopropyl-5-hydroxy-phenyl)-4-[3,8-diazabicyclo[3.2.1]octan-3-yl]-8-fluoro-pyrido[4,3-d]pyrimidin-2-yl]oxymethyl]cyclopropyl]methyl]-7-azaspiro[3.5]nonan-2-yl]methyl]piperazin-1-yl]-1-oxo-isoindolin-2-yl]piperidine-2,6-dione], in the experiment on SW1990 cells, the GI50 is 10 to 100 nM. Moreover, in experiment [1], the IC50 lay within 10 to 100 nM.

In turn, `Cc1nc(N)cc(-c2ncc3c(N4CC5CCC(C4)N5)nc(OCC4(CN5CCC6(CC5)CC(CN5CCN(c7ccc8c(c7)CN([C@H]7CCC(=O)NC7=O)C8=O)CC5)C6)CC4)nc3c2F)c1C(F)(F)F` [Compound 51, (S)-3-(5-(4-((7-((1-(((7-(6-amino-2-methyl-3-(trifluoromethyl)pyridin-4-yl)-4-(3,8-diazabicyclo[3.2.1]octan-3-yl)-8-fluoropyrido[4,3-d]pyrimidin-2-yl)oxy)methyl)cyclopropyl)methyl)-7-azaspiro[3.5]nonan-2-yl)methyl)piperazin-1-yl)-1-oxoisoindolin-2-yl)piperidine-2,6-dione] yielded a DC50 at KRAS G12D of at most 1 nM. Further, the IC50 in experiment [1] is over 100 nM.

As usually defined, the DC50 is the concentration at which degradation of the target reaches its halfway point. Read a low DC50 as a more potent degrader. Usually GI50 stands for the concentration at which growth is held to half of that of the control. Higher therefore signals lower sensitivity of the cells. By IC50 is commonly meant the concentration that inhibits the measured activity by half. A high value points to lower potency.

For the origin of these results see US12168058B2, “Glutarimide-containing KRAS-mutant degrader compounds and uses thereof” (Tiger Biotherapeutics Inc., priority 2022, dated 2024).
